Measurements published in ChEMBL document CHEMBL1275262, “Stereoselective phosphorylation of cyclopropavir by pUL97 and competitive inhibition by maribavir” (Antimicrob Agents Chemother, 2010).
Calls of active or inactive are those of the source. The calls are words filed in the database; no cut-off is given here.

How the values were obtained:
Human betaherpesvirus 5 [1] = assay: Antiviral activity against Human cytomegalovirus; format: functional, organism-based
Murid betaherpesvirus 1 = assay: Antiviral activity against Murine cytomegalovirus infected in severe combined immunodeficient mouse assessed as reduction in viral load; format: functional
Human betaherpesvirus 5 [2] = assay: Antiviral activity against Human cytomegalovirus infected in severe combined immunodeficient mouse with human fetal tissue implanted assessed as reduction in viral replication; format: functional, organism-based

Nc1nc2c(ncn2COC(CO)CO)c(=O)[nH]1 [GANCICLOVIR]
EC50 (Human betaherpesvirus 5 [1]): 4.1 µM

Nc1nc2c(ncn2/C=C2/CC2(CO)CO)c(=O)[nH]1 [FILOCICLOVIR]
fold change (FC) (Murid betaherpesvirus 1): 2
Activity (Human betaherpesvirus 5 [2]): Active
